13 molecules from US10947263B2, “Cyclic dinucleotides as anticancer agents” (BRISTOL-MYERS SQUIBB COMPANY, priority 2017, dated 2021) can be followed below.

Where two headings read alike, the source gives them in different places.

For experiment [1], the target named is T1, STING WT (His-TVMV-S-hSTING(155-341)-H232R) (Homo sapiens, UniProt Q86WV6, H232R).
T1 construct: STING WT: His-TVMV-S-hSTING(155-341)-H232R
Put plainly: STING HTRF binding assay (time resolved FRET competition), STING WT. The settings on record: 20 nM His-tagged STING WT cytoplasmic domain, 200 nM fluorescein-labeled cGAMP analog probe, one hour; read-out: HTRF Binding Assays IC50 WT. On the procedure:
(§1) A time resolved FRET-based competition binding assay was used to assess test article binding to STING WT and STING AQ. His-tagged STING cytoplasmic domain (WT or AQ) at a concentration of 20 nM was incubated with 2.5 nM Tb-labeled anti-His antibody, test compound, and fluorescein-labeled cGAMP analog probe (BioLog cat. no. C195) at a concentration of 200 nM (STING WT) or 40 nM (STING AQ) in PBS containing 0.005% Tween-20 and 0.1% BSA for one hour. Fluorescence at 495 nm and 520 nm was measured using an EnVision microplate reader to quantify FRET between Tb-labeled anti-His antibody and fluorescein-labeled probe. Background was defined as the signal obtained in the absence of STING protein, and background subtracted FRET ratios were normalized to the maximum signal obtained in the absence of test compound. These values were converted to a percent inhibition. Percent inhibition was determined for test compounds at 11 concentrations. The IC50, defined as the concentration of competing test compound needed to reduce specific binding of the probe by 50%, was calculated using the 4 parameter logistic equation to fit the data
STING WT: His-TVMV-S-hSTING(155-341)-H232R • […] […] […] […] LRQEEKEEV (SEQ ID NO:1)

The test system of experiment [2] is STING / NF-κB pathway in THP1-Dual cells. In words: STING THP1 Reporter Assay, NF-κB pathway (SEAP, QUANTI-Blue). It is filed as cell-based. The settings on record: 10% human plasma, 100% activation = 100 μM cGAMP, SEAP readout, read-out: THP1 Reporter Assays EC50 NFkB. An excerpt: (§2) THP1-Dual™ cells were derived from the human THP-1 monocyte cell line by stable integration of two inducible reporter constructs. To this end, THP1-Dual™ cells allow the simultaneous study of the […], by monitoring the activity of SEAP, and the IRF pathway by assessing the activity of a secreted luciferase (Lucia). Both reporter proteins are readily measurable in the cell culture supernatant when using QUANTI-Blue™, a SEAP detection reagent, and QUANTI-Luc™, a luciferase detection reagent.
(§3) THP1-Dual™ cells induce the activation of NF-κB in response to STING agonists. They also trigger the IRF pathway upon stimulation with STING agonists, such as cGAMP. Here, the THP-1-Dual cells were used to assess STING binders for function on the cellular level.
(§4) Serial dilutions of compounds in DMSO were added to low volume 384 well plates at 100 nl/well using an ECHO acoustic dispenser (Labcyte, model 550) to achieve final starting concentration of 100 μM in cell suspension. THP-1 Dual™ STING reporter cells (Invivogen, Dual cells cat #THPD-nfis) were added to the plates with compounds at 15,000 cells in 10 μL per well in RPMI media (Gibco, cat #11875) containing 10% human plasma in a low volume 384-well black wall clear bottom tissue culture plate (Corning, cat #3542) for SEAP assay and low volume solid white plate (Corning, cat #3826) for luciferase assay. One column of the plate was reserved for treatment with cGAMP at 100 μM for 100% activation calculation and one column for no treatment (DMSO only) for baseline activation. Plates were then incubated in 37 OC incubator at 5% CO2 for 20 hours.
(§5) In the SEAP assay, […] 2× QuantiBlue (Invivogen, cat #Rep-qb2) is added to 384 well black plates seeded with THP1 cells and incubated at 37° C. for 2 hours. Plates were read on the Envision (Perkin Elmer) at 620 nm wavelength (OD620). In the luciferase assay, 5 μl of Quantiluc (Invivogen, Rep-qlc2) is added to white 384 well plates seeded with THP1 cells and read at 5 minutes on the Envision (Perkin Elmer) using a luminescence protocol (RLU). For both cell lines, 100% activation was determined by value (RLU) of THP-1 Dual STING cells stimulated with 100 μM cGAMP (Invivogen, cat #TLRL-NACGA23-5).

Experiment [3] has as its system STING / IRF pathway in THP1-Dual cells. In words: STING THP1 Reporter Assay, IRF pathway (secreted Lucia luciferase, QUANTI-Luc). Type of experiment: cell-based. The settings on record: 10% human plasma, 100% activation = 100 μM cGAMP, luciferase readout, read-out: THP1 Reporter Assays EC50 IRF3.
Text: as §2, §3, §4, §5
(In a reporter assay the amount or activity of a reporter protein is the signal.)

For experiment [4], the target named is T2, STING AQ (His-TVMV-S-hSTING(155-341)-G230A-R293Q) (Homo sapiens, UniProt Q86WV6, G230A/H232R/R293Q).
T2 construct: STING AQ: His-TVMV-S-hSTING(155-341)-G230A-R293Q
T2 sequence (Q86WV6 with tags, fused parts or gaps G230A/H232R/R293Q): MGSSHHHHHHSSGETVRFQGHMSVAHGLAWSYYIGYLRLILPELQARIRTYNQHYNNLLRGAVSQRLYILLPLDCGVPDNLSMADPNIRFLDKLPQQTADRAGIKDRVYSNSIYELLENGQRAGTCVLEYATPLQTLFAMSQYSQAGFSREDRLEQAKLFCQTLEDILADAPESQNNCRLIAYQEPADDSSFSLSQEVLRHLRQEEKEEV
Put plainly: STING HTRF binding assay (time resolved FRET competition), STING AQ. The settings on record: 20 nM His-tagged STING AQ cytoplasmic domain, 40 nM fluorescein-labeled cGAMP analog probe, one hour; read-out: HTRF Binding Assays IC50 AQ. On the procedure: as §1
STING AQ: His-TVMV-S-hSTING(155-341)-G230A-R293Q • […] […] […] […] LRQEEKEEV (SEQ ID NO:2)
Background: TR-FRET usually uses a lanthanide donor and a delayed reading to cut background.

T1 sequence (Q86WV6 with tags, fused parts or gaps H232R): as the sequence (Q86WV6 with tags, fused parts or gaps G230A/H232R/R293Q) above, with A99G, Q162R counted along it

Broadly, the IC50 is the concentration that inhibits the measured activity by half. Broadly, the EC50 is the concentration at which the effect is half-maximal. As to `Nc1ncnc2c1ncn2[C@@H]1O[C@@H]2COP(=O)(S)O[C@@H]3[C@H](O)[C@@H](COP(=O)(S)O[C@H]2[C@H]1F)O[C@H]3n1nnc2c([N+](=O)[O-])cccc21` (single isomer, unassigned) [Example 7-2], the values for the concentration for half-maximal inhibition (IC50) in experiment [1] and in experiment [4] were 0.24 µM and 0.04 µM, respectively. Moreover, the concentration for a half-maximal effect (EC50) in experiment [2] (20 hours) was 64 µM; in experiment [3] (20 hours) it was 28 µM.
`NC(=O)c1cccc2c1nnn2[C@@H]1O[C@@H]2COP(=O)(S)O[C@H]3[C@@H](F)[C@H](n4cnc5c(N)ncnc54)O[C@@H]3COP(=O)(S)O[C@@H]1[C@@H]2O` (single isomer, unassigned) [Example 8-1]: the IC50 in experiment [1] and in experiment [4] was 0.01 µM each time. In addition, the EC50 in experiment [2] (20 hours) came to 2.4 µM; in experiment [3] (20 hours), 1 µM.
For `Nc1ncnc2c1ncn2[C@@H]1O[C@@H]2COP(=O)(S)O[C@@H]3[C@H](O)[C@@H](COP(=O)(S)O[C@H]2[C@H]1F)O[C@H]3n1nnc2c([N+](=O)[O-])cccc21` (single isomer, unassigned) [Example 7-3], the values for the IC50 in experiment [1] and in experiment [4] were 0.06 µM and 0.01 µM, respectively. Also, the concentration for a half-maximal effect (EC50) in experiment [2] (20 hours) amounted to 15.3 µM; in experiment [3] (20 hours), 7.2 µM.
Consider `Nc1ncnc2c1ncn2[C@@H]1O[C@@H]2COP(=O)(O)O[C@@H]3[C@H](O)[C@@H](COP(=O)(S)O[C@H]2[C@H]1O)O[C@H]3n1nnc2c([N+](=O)[O-])cccc21` (stereo partly drawn) [Example 18-1, (1R,6R,8R,9R,10S,15R,17R,18R)-8-(6-amino-9H-purin-9-yl)-3,9,18-trihydroxy-17-(4-nitro-1H-1,2,3-benzotriazol-1-yl)-12-sulfanyl-2,4,7,11,13,16-hexaoxa-3λ^5,12λ^5-diphosphatricyclo[13.2.1.0^6,10]octadecane-3,12-dione], for which the results for the half-maximal inhibitory concentration (IC50) in experiment [1] and in experiment [4] were over 100 µM and 66.9 µM, respectively. The EC50 is over 100 µM in experiment [2] (Homo sapiens, THP1-Dual, 20 h) and over 100 µM in experiment [3] (Homo sapiens, THP1-Dual, 20 h).
Consider `Nc1ncnc2c1ncn2[C@@H]1O[C@@H]2COP(=O)(O)O[C@@H]3[C@H](O)[C@@H](COP(=O)(O)O[C@H]2[C@H]1O)O[C@H]3n1nnc2c([N+](=O)[O-])cccc21` [Example 2, (1R,6R,8R,9R,10S,15R,17R, 18R)-8-(6-amino-9H-purin-9-yl)-3,9,12,18-tetrahydroxy-17-(4-nitro-1H-1,2,3-benzo-triazol-1-yl)-2,4,7,11,13,16-hexaoxa-3λ^5,12λ^5-diphospha-tricyclo[13.2.1.0^6,^10]octa-decane-3,12-dione], for which the IC50 in experiment [1] turned out to be 0.16 µM; in experiment [4], 0.005 µM. The EC50 in experiment [2] (Homo sapiens, THP1-Dual, 20 h) was found to be 80 µM; in experiment [3] (Homo sapiens, THP1-Dual, 20 h), 53 µM.
Take `NC(=O)c1cccc2c1nnn2[C@@H]1O[C@@H]2COP(=O)(S)O[C@H]3[C@@H](F)[C@H](n4cnc5c(N)ncnc54)O[C@@H]3COP(=O)(S)O[C@@H]1[C@@H]2F` (single isomer, unassigned) [Example 10-3]: the half-maximal inhibitory concentration (IC50) in experiment [1] worked out at 0.05 µM; in experiment [4], 0.005 µM. Also, the EC50 in experiment [2] (20 hours) was 8.9 µM; in experiment [3] (20 hours), 5.1 µM.
On to `Nc1ncnc2c1ncn2[C@@H]1O[C@@H]2COP(=O)(O)O[C@@H]3[C@H](O)[C@@H](COP(=O)(O)O[C@H]2[C@H]1O)O[C@H]3n1nnc2c(N)cccc21` [Example 21, (1R,6R,8R,9R,10S,15R,17R,18R)-17-(4-amino-1H-1,2,3-benzotriazol-1-yl)-8-(6-amino-9H-purin-9-yl)-3,9,12,18-tetrahydroxy-2,4,7,11,13,16-hexaoxa-3λ^5,12λ^5-diphosphatricyclo[13.2.1.0^6,10]octadecane-3,12-dione], for which the 50% inhibitory concentration (IC50) in experiment [1] stood at 1.7 µM. Further, the EC50 in experiment [2] (Homo sapiens, THP1-Dual, 20 h) was over 100 µM; in experiment [3] (Homo sapiens, THP1-Dual, 20 h), over 100 µM.
With `NC(=O)c1cccc2c1nnn2[C@@H]1O[C@@H]2COP(=O)(O)O[C@H]3[C@@H](F)[C@H](n4cnc5c(N)ncnc54)O[C@@H]3COP(=O)(S)O[C@@H]1[C@@H]2O` (single isomer, unassigned) [Example 4-1], the IC50 in experiment [1] was 0.06 µM; in experiment [4] it was 0.01 µM. In addition, the concentration for a half-maximal effect (EC50) is 12 µM in experiment [2] (20 hours) and 4.5 µM in experiment [3] (20 hours).
As to `O=[N+]([O-])c1cccc2c1nnn2[C@@H]1O[C@@H]2COP(=O)(S)O[C@H]3[C@@H](F)[C@H](n4cnc5c4ncn4ccnc54)O[C@@H]3COP(=O)(S)O[C@@H]1[C@@H]2F` (stereo partly drawn) [Example 14-1, (1S,6R,8R,9R,10R,15R,17R,18R)-9,18-difluoro-8-{3H-imidazo[2,1-f]purin-3-yl}-17-(4-nitro-1H-1,2,3-benzotriazol-1-yl)-3,12-disulfanyl-2,4,7,11,13,16-hexaoxa-3λ^5,12λ^5-diphosphatricyclo[13.2.1.0^6,10]octadecane-3,12-dione], the values for the IC50 in experiment [1] and in experiment [4] were 0.05 µM and 0.01 µM, respectively. Also, the EC50 in experiment [2] (Homo sapiens, THP1-Dual, 20 h) worked out at 11.7 µM; in experiment [3] (Homo sapiens, THP1-Dual, 20 h), 3.3 µM.
As for `O=[N+]([O-])c1cccc2c1nnn2[C@@H]1O[C@@H]2COP(=O)(S)O[C@H]3[C@@H](F)[C@H](n4cnc5c4ncn4ccnc54)O[C@@H]3COP(=O)(S)O[C@@H]1[C@@H]2O` (single isomer, unassigned) [Example 15-2], the IC50 in experiment [1] was found to be 1.75 µM; in experiment [4] it was 0.05 µM. The EC50 in experiment [2] (20 hours) amounted to 96.8 µM; in experiment [3] (20 hours), 63.4 µM.
In the case of `NC(=O)c1cccc2c1nnn2[C@@H]1O[C@@H]2COP(=O)(S)O[C@H]3[C@@H](F)[C@H](n4cnc5c(N)ncnc54)O[C@@H]3COP(=O)(S)O[C@@H]1[C@@H]2F` (single isomer, unassigned) [Example 10-2], the IC50 was 0.1 µM in experiment [1] and 0.01 µM in experiment [4]. Further, the concentration for a half-maximal effect (EC50) in experiment [2] (20 hours) worked out at 76.2 µM; in experiment [3] (20 hours), 46.5 µM.
In the same order, the values of `NC(=O)c1cccc2c1nnn2[C@@H]1O[C@@H]2COP(=O)(O)O[C@H]3[C@@H](F)[C@H](n4cnc5c4ncn4ccnc54)O[C@@H]3COP(=O)(S)O[C@@H]1[C@@H]2F` (single isomer, unassigned) [Example 16-1] are 0.09 µM, 0.01 µM, 7.7 µM and 2.2 µM.
`Nc1ncnc2c1ncn2[C@@H]1O[C@@H]2COP(=O)(S)O[C@@H]3[C@H](O)[C@@H](COP(=O)(O)O[C@H]2[C@H]1F)O[C@H]3n1nnc2c([N+](=O)[O-])cccc21` (single isomer, unassigned) [Example 5-2]: the EC50 in experiment [2] (20 hours) stood at 13 µM; in experiment [3] (20 hours) it was 5.6 µM. Besides, the IC50 in experiment [4] was found to be 0.01 µM.
